Patent US20150283145A1, “TREATMENT OF HYPERPROLIFERATIVE AND PRE-CANCEROUS SKIN DISEASES USING AN INHIBITOR OF CBP/CATENIN” (PRISM Pharma Co., Ltd., priority 2012, published 2015)

How the values were obtained:
[1] = test system: psoriasis tissue model (SOR-300-FT); assay: Tissue structure (H&E histology) of psoriasis tissue model; format: cell-based, human
From the text: (§1) The psoriasis tissue model (SOR-300-FT; MatTek Corp., Ashland, Mass.) is a highly differentiated in vitro psoriatic tissue comprised of normal, human-derived keratinocytes and psoriatic fibroblasts which have been cultured to form a highly differentiated model of psoriatic tissue. Morphologically, the psoriatic tissue is of uniform thickness and is very similar to native psoriatic tissue in that it expresses increased levels of Ki67+ cells (hyperproliferation) and psoriasis-associated proteins such as psoriasin, elafin and human beta-defensin-2 (HBD-2) (Am. J. Pathol. 173:815-23, 2008). SOR-300-FT tissues (surface area=0.6 cm^2) were cultured on microporous membrane (pore size=0.4 μm) cell culture inserts. All psoriatic tissues were grown at the air liquid interface (ALI) in which the apical tissue layer is exposed to air. Use of the ALI induces the tissues to attain skin-like differentiation and allows direct topical application of test materials (similar to in vivo exposure).
(§2) Calcipotriol at 2.5, 0.25 and 0.025 μg/ml in medium was used as positive control. Ultrapure water was used as the vehicle control. The test article Compound C was applied to the basolateral (by additions to the culture medium) and apical (50 μl) side of the tissues. The effect of each three concentrations of the test article on tissue structure was examined using H&E stained histological slides. For gene analysis, RNA was isolated using standard RNA isolation protocol (MatTek Corporation). Isolated RNA was quantified and the integrity of the isolated RNA was checked. Quantitative RT-PCR was performed to determine expression levels of 5 psoriatic associated genes (elafin, HBD-2, psoriasin, p63, and Ki67).
(§3) SOR-300-FT™ tissues were transferred to 6-well plates containing 0.9 ml of pre-warmed assay medium and equilibrated to standard culture conditions (37° C., 5% CO2) for 1 hour. After the 1 hr equilibration, the tissues were re-fed with fresh medium as follow: 1) for the 24 hr time point, tissues were feed with 0.9 ml of medium and 2) for time points >24 hr, tissues were fed with 5 ml of culture medium by placing the cell culture inserts on top of the washers (Part # EPI-WSHR, MatTek Corporation). Next, 50 μl of the test article was applied topically to the psoriatic tissues (n=3) and the test article was added to the culture medium at concentrations of 100 μM, 30 μM, and 5 μM. At times 48 and 72 hours: a) the tissues were rinsed topically 3× with 300-400 μL of PBS, b) the inserts containing the tissues were held tightly with sterile forceps and the test article was rinsed gently by immersing the insert into PBS and decant medium from insert and c) fresh test article was re-applied to the tissue immediately after rinsing and decanting (50 μl, topically). Analysis was performed at t=48 hr (2× repeat applications) and t=96 hr (4× applications).
(§4) After t=48 (2× repeat exposure) and t=96 hr (4× exposure), N=3 tissues/treatment were used for RNA isolation for biomarker identification (gene expression levels). After the t=48 and t=96 hr, N=1 tissue/treatment was fixed in 10% formalin for histological analysis.
Microscopic observations of histology samples were performed and effect of treatment on tissue morphology such as apical surface disruption, structural changes, and abnormal tissue staining was assessed.

[2] = test system: elafin gene expression; assay: qPCR elafin gene expression in psoriatic tissue model; format: cell-based, human
From the text: as §1, §2, §3, §4
(§5) RNA Isolation: RNA was isolated from the tissues following MatTek's standardized RNA isolation protocol. The concentration, integrity, and purity of RNA was assessed using Experion System (Bio-Rad).
(§6) qPCR: cDNA was generated using the RT2 First Strand Kit (Qiagen, cat#330401). Relative gene expression was measured using RT2 SYBR Green qPCR Mastermix (Qiagen, cat#330502) and Qiagen RT2 primers. Analysis was carried out using Bio-Rad CFX software.
(§7) qPCR was performed to quantify the relative gene expression levels of 5 psoriatic associated gene biomarkers: 1) human beta defensin 2 (HBD-2), 2) psoriasin, 3) elafin and 4) p63, and 5) Ki67.

[3] = test system: human beta defensin 2 (HBD-2) gene expression; assay: qPCR HBD-2 gene expression in psoriatic tissue model; format: cell-based
From the text: as §1, §2, §3, §4, §5, §6, §7

[4] = test system: psoriasin gene expression; assay: qPCR psoriasin gene expression in psoriatic tissue model; format: cell-based, human
From the text: as §1, §2, §3, §4, §5, §6, §7

[5] = test system: p63 gene expression; assay: qPCR p63 gene expression in psoriatic tissue model; format: cell-based, human; settings: for Downregulation of p63 gene: 2× or 4× repeat applications
From the text: as §1, §2, §3, §4, §5, §6, §7

[6] = test system: Ki67 gene expression; assay: qPCR Ki67 gene expression in psoriatic tissue model; format: cell-based, human; settings: for Downregulation of Ki67 gene: 2× or 4× repeat applications
From the text: as §1, §2
as §3, with “applications). […]” for “applications).”
as §5
qPCR: cDNA was generated using the RT2 First Strand Kit (Qiagen, cat#330401). Relative gene expression was measured using RT2 SYBR Green qPCR Mastermix (Qiagen, cat#330502) and Qiagen RT2 primers. […]
as §7

[7] = 0.025 ug/ml, 2× repeat applications
[8] = 0.025 ug/ml, 4× repeat applications
[9] = 2.5 μg/ml, 2× repeat applications
[10] = 2.5 μg/ml, 4× repeat applications
[11] = 0.25 ug/ml, 2× application, 48 hr

## C=C1/C(=C\C=C2/CCC[C@]3(C)[C@@H]([C@H](C)/C=C/[C@@H](O)C4CC4)CC[C@@H]23)C[C@@H](O)C[C@@H]1O [Calcipotriol, reference compound]
[1]; 2.5, 0.25 and 0.025 μg/ml, 2× or 4× repeat exposures
  Microscopic observation of tissue histology: minimal-to-no evidence of structural damage
[2]; [7]
  Downregulation (≧2 fold) of elafin gene expression: not after 2× repeat applications
[2]; [8]
  Downregulation of elafin gene expression: ≥ 2 fold
[2]; [9]
  Downregulation of elafin gene expression: ≥ 2 fold
[2]; [10]
  Reduction of elafin gene expression: significant reduction
[3]; [7]
  Downregulation (≧2 fold) of HBD-2 gene expression: not after 2× repeat applications
[3]; [8]
  Downregulation of HBD-2 gene expression: ≥ 2 fold
[3]; [11]
  Downregulation of HBD2 gene expression: ≥ 2 fold
[3]; [9]
  Downregulation of HBD-2 gene expression: ≥ 2 fold
[3]; [10]
  Reduction of HBD-2 gene expression: significant reduction
[4]; [7]
  Downregulation (≧2 fold) of psoriasin gene expression: not after 2× repeat applications
[4]; [8]
  Downregulation of psoriasin gene expression: ≥ 2 fold
[4]; [9]
  Downregulation of psoriasin gene expression: ≥ 2 fold
[4]; [10]
  Reduction of psoriasin gene expression: significant reduction
[5]; [11]
  Downregulation of p63 gene expression: ≥ 2 fold
[5]; [9]
  Downregulation of p63 gene expression: ≥ 2 fold
[5]; [10]
  Decrease of p63 gene expression: 1.7 fold
[6]; [9]
  Downregulation of Ki 67 gene expression: ≥ 2 fold
[6]; [10]
  Decrease of Ki67 gene expression: 1.6 fold

## C[C@H]1[C@H]2N(C(=O)CN(C)N2C(=O)NCc2ccccc2)[C@@H](Cc2ccc(O)cc2)C(=O)N1Cc1cccc2cccnc12 [Compound C, (6S,9S,9aS)—N-benzyl-6-(4-hydroxybenzyl)-2,9-dimethyl-4,7-dioxo-8-(quinolin-8-ylmethyl)octahydro-1H-pyrazino[2,1-c][1,2,4]triazine-1-carboxamide]
[1]; 5 μM, 2× repeat exposures
  Microscopic observation of tissue histology: minimal effect on tissue structure
[1]; 5 μM, 4× repeat exposures
  Basal cells and tissue regeneration (histology): the basal cells were intact and tissue regeneration was occurring
  Microscopic observation of tissue histology: the parabasal-apical layer of the tissue was sloughed off
[1]; 30 μM, 2× repeat exposures, 48 hr
  Microscopic observation of tissue histology: minor structural damage
[1]; 30 μM, 4× exposures, 96 hr
  Microscopic observation of tissue histology: the suprabasal and apical layer was sloughed off
[1]; 100 μM, 2× or 4× repeat exposures
  Microscopic observation of tissue histology: structural damage to the differentiated cell layer
[2]; 5 μM, 4× applications, 96 hr
  Downregulation of elafin gene expression: ≥ 2 fold
[2]; 30 μM, 4× applications, 96 hr
  Downregulation of elafin gene expression: ≥ 2 fold
[2]; 30 μM, 48 hr (2× applications)
  Reduction in elafin gene expression level: 2.2 fold
[2]; 100 μM, 4× applications, 96 hr
  Downregulation of elafin gene expression: ≥ 2 fold
[3]; 5 μM, 4× applications, 96 hr
  Downregulation of HBD-2 gene expression: ≥ 2 fold
[3]; 30 μM, 4× applications, 96 hr
  Downregulation of HBD-2 gene expression: ≥ 2 fold
[3]; 100 μM, 4× applications, 96 hr
  Downregulation of HBD-2 gene expression: ≥ 2 fold
[4]; 5 μM, 4× applications, 96 hr
  Downregulation of psoriasin gene expression: ≥ 2 fold
[4]; 30 μM, 4× applications, 96 hr
  Downregulation of psoriasin gene expression: ≥ 2 fold
[4]; 100 μM, 4× applications, 96 hr
  Downregulation of psoriasin gene expression: ≥ 2 fold
[5]; 5 μM
  Downregulation of p63 gene: did not show downregulation
[5]; 30 μM
  Downregulation of p63 gene: did not show downregulation
[5]; 100 μM, 2× repeat applications
  Downregulation of the p63 gene: 1.6 fold
[6]; 5 μM
  Downregulation of Ki67 gene: did not show downregulation
[6]; 30 μM
  Downregulation of Ki67 gene: did not show downregulation
[6]; 100 μM, 2× and 4× applications (FIGS. 4A-B)
  Downregulation of Ki 67 gene expression: No down regulation
